Assay [1] concerns the target T1, rat P2X3 receptor (Rattus norvegicus, UniProt P49654).
T1 construct: expressed in transfected cells; host or cells: CHO-K1
T1 sequence (P49654 1-397): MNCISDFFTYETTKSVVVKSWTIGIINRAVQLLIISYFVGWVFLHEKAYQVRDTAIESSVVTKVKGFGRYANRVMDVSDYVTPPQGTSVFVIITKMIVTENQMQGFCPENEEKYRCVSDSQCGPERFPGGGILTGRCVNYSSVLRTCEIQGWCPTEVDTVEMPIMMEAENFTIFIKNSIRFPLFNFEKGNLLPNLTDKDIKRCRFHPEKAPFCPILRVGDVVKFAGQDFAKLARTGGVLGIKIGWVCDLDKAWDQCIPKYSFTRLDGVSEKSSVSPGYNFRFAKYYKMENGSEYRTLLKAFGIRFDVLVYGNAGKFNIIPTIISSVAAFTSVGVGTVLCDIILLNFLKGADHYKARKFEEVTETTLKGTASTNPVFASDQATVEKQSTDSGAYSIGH
Kind of assay: P2X3/P2X2/3 FLIPR (Fluorometric Imaging Plate Reader) Assay, P2X3. It is filed as cell-based. To be noted: for Ki: CHO-K1 cells transfected with rat P2X3, agonist α,β-meATP 1 μM, Table 1, read-out: P2X3 pKi (converted). Put shortly:
(§1)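 CHO-K1 cells expressing rat P2X3 or human P2X2/3 were loaded with Fluo-3 AM (2 μM, 1 h, 37 °C) and preincubated with compound for 20 min at room temperature. Calcium influx was evoked by α,β-meATP (1 μM for P2X3, 5 μM for P2X2/3) and peak fluorescence was fitted by nonlinear regression to inhibition curves.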

Assay [2] concerns the target T2, human P2X2/3 receptor (Homo sapiens, UniProt P56373+Q9UBL9).
T2 construct: expressed in transfected cells; host or cells: CHO-K1
T2 sequence (Q9UBL9 1-471): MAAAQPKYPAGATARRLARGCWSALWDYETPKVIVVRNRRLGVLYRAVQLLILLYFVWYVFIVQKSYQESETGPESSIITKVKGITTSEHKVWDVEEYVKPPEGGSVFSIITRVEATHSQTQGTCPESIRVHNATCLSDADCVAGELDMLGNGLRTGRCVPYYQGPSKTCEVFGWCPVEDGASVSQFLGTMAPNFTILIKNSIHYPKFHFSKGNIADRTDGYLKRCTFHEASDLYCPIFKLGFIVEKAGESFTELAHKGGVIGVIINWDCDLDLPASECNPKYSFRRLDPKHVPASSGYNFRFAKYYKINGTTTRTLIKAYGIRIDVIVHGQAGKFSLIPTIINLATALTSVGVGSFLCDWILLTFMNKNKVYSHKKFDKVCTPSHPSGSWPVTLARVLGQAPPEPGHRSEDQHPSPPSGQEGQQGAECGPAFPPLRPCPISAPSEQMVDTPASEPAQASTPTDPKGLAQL
T2 sequence (P56373 1-397): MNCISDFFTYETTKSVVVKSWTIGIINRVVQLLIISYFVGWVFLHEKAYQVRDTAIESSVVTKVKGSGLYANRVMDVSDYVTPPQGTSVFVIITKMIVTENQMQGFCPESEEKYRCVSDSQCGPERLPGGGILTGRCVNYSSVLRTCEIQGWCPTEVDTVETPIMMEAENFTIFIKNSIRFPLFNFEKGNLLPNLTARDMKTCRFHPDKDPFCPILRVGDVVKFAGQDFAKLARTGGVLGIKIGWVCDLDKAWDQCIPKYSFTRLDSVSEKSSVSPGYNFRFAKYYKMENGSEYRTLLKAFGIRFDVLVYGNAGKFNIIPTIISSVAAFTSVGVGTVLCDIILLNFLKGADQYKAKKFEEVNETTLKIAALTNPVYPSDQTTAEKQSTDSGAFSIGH
Kind of assay: P2X3/P2X2/3 FLIPR (Fluorometric Imaging Plate Reader) Assay, P2X2/3. It is filed as cell-based. The settings on record: CHO-K1 cells transfected with human P2X2/3; agonist α,β-meATP 5 μM; Table 1; read-out: P2X2/3 pKi (converted). Put shortly: as §1

The text below walks through data of US8440708B2, “Triazole-substituted arylamides as P2X3 and P2X2/3 antagonists” (Roche Palo Alto LLC, priority 2007, dated 2013).

For `Cc1cnc(CNC(=O)c2cc(-c3ccc(Cl)cn3)cc(-n3ncnc3C(C)N(C)C)c2)cn1` (stereo not shown) [Compound 158, 3-(5-Chloro-pyridin-2-yl)-5-[5-(1-dimethylamino-ethyl)-[1,2,4]triazol-1-yl]-N-(5-methyl-pyrazin-2-ylmethyl)-benzamide], the Ki in assay [1] is 37.2 nM; in assay [2] it was 851 nM.
The like results for `COC[C@@H](C)NC(=O)c1cc(-c2ccc(C)cc2F)cc(-n2ncnc2C(C)C)c1` [Compound 33, 2′-Fluoro-5-(5-isopropyl-[1,2,4]triazol-1-yl)-4′-methyl-biphenyl-3-carboxylic acid ((R)-2-methoxy-1-methyl-ethyl)-amide] were, in that order, 4.07 nM and 1380 nM.
The corresponding values for `Cc1ccc(-c2cc(C(=O)N[C@@H](C)CO)cc(-n3ncnc3C(C)(C)C)c2)nc1` [Compound 94, 3-(5-tert-Butyl-[1,2,4]triazol-1-yl)-N-((S)-2-hydroxy-1-methyl-ethyl)-5-(5-methyl-pyridin-2-yl)-benzamide] are 12.3 nM and 10000 nM.
For `Cc1ccc(-c2cc(C(=O)N[C@@H](C)CO)cc(-n3ncnc3C(C)C)c2)c(F)c1` [Compound 35, 2′-Fluoro-5-(5-isopropyl-[1,2,4]triazol-1-yl)-4′-methyl-biphenyl-3-carboxylic acid ((S)-2-hydroxy-1-methyl-ethyl)-amide], the Ki in assay [1] was 1.7 nM; in assay [2], 417 nM. The IC50 in assay [1] (text b666, CHO-K1 cells, α,β-meATP 1 μM, read-out: pIC50 for the P2X3 receptor (converted)) is approximately 1.7 nM.
Turning to `COCC(C)NC(=O)c1cc(-c2ccc(C)cc2)cc(-n2ncnc2C(C)C)c1` (stereo not shown) [Compound 14, 5-(5-Isopropyl-[1,2,4]triazol-1-yl)-4′-methyl-biphenyl-3-carboxylic acid (2-methoxy-1-methyl-ethyl)-amide], the figures for the Ki in assay [1] and in assay [2] were 12 nM and 1020 nM, respectively.
For `Cc1ccc(-c2cc(C(=O)NC(C)c3cnccn3)cc(-n3cnnc3C(C)C)c2)cc1` (stereo not shown) [Compound 19], the Ki in assay [1] was 5.89 nM; in assay [2], 1290 nM.
The like results for `Cc1ccc(-c2cc(C(=O)NC(C)c3cnccn3)cc(-c3nnc4ccccn34)c2)c(F)c1` (stereo not shown) [Compound 4, 2′-Fluoro-4′-methyl-5-[1,2,4]triazolo[4,3-a]pyridin-3-yl-biphenyl-3-carboxylic acid (1-pyrazin-2-yl-ethyl)-amide] were, in that order, 437 nM and 1230 nM.
The like results for `COC(C)c1ncnn1-c1cc(C(=O)NC(C)c2cnccn2)cc(-c2ccc(C)cn2)c1` (stereo not shown) [Compound 58, 3-[5-(1-Methoxy-ethyl)-[1,2,4]triazol-1-yl]-5-(5-methyl-pyridin-2-yl)-N-(1-pyrazin-2-yl-ethyl)-benzamide] were, in that order, 17 nM and 132 nM.
`CCn1cc(-c2cc(C(=O)N[C@H](C)COC)cc(-c3ccc(C)cc3)c2)nn1` [Compound 39, 5-(1-Ethyl-1H-[1,2,3]triazol-4-yl)-4′-methyl-biphenyl-3-carboxylic acid ((R)-2-methoxy-1-methyl-ethyl)-amide]: the Ki in assay [1] was 8510 nM; in assay [2], 10000 nM.
In the case of `Cc1ccc(-c2cc(C(=O)NC(C)c3cnccn3)cc(-n3ncnc3C(F)(F)F)c2)nc1` (stereo not shown) [Compound 98, 3-(5-Methyl-pyridin-2-yl)-N-(1-pyrazin-2-yl-ethyl)-5-(5-trifluoromethyl-[1,2,4]triazol-1-yl)-benzamide], the Ki in assay [1] is 2.24 nM; in assay [2], 45.7 nM.
The corresponding values for `Cc1ccc(-c2cc(C(=O)N[C@@H](C)CO)cc(-n3ncnc3C(C)C)c2)cc1` [Compound 17, 5-(5-Isopropyl-[1,2,4]triazol-1-yl)-4′-methyl-biphenyl-3-carboxylic acid ((S)-2-hydroxy-1-methyl-ethyl)-amide] are 2.88 nM and 141 nM.
The like results for `CCc1ncnn1-c1cc(C(=O)N[C@@H](C)CO)cc(-c2ccc(C)cn2)c1` [Compound 127, 3-(5-Ethyl-[1,2,4]triazol-1-yl)-N-((S)-2-hydroxy-1-methyl-ethyl)-5-(5-methyl-pyridin-2-yl)-benzamide] were, in that order, 24.5 nM and 6920 nM.
The like results for `Cc1ccc(-c2cc(C(=O)NCc3cnc(C)cn3)cc(-n3ncnc3C(C)N(C)C)c2)cc1` (stereo not shown) [Compound 62, 5-[5-(1-Dimethylamino-ethyl)-[1,2,4]triazol-1-yl]-4′-methyl-biphenyl-3-carboxylic acid (5-methyl-pyrazin-2-ylmethyl)-amide] were, in that order, 5.25 nM and 43.7 nM.
With `Cc1cnc(CNC(=O)c2cc(-c3ccc(Cl)cn3)cc(-n3ncnc3CF)c2)cn1` [Compound 92, 3-(5-Chloro-pyridin-2-yl)-5-(5-fluoromethyl-[1,2,4]triazol-1-yl)-N-(5-methyl-pyrazin-2-ylmethyl)-benzamide], the results for the Ki in assay [1] and in assay [2] were 21.4 nM and 2570 nM, respectively.
Consider `Cc1ccc(-c2cc(C(=O)NCc3cnc(C)cn3)cc(-n3ncnc3C(C)N(C)C)c2)nc1` (stereo not shown) [Compound 141, 3-[5-(1-Dimethylamino-ethyl)-[1,2,4]triazol-1-yl]-N-(5-methyl-pyrazin-2-ylmethyl)-5-(5-methyl-pyridin-2-yl)-benzamide], for which the values for the Ki in assay [1] and in assay [2] were 12.3 nM and 214 nM, respectively.
As for `C[C@@H](CO)NC(=O)c1cc(-c2ccc(Cl)cn2)cc(-n2ncnc2C(C)(F)F)c1` [Compound 73, 3-(5-Chloro-pyridin-2-yl)-5-[5-(1,1-difluoro-ethyl)-[1,2,4]triazol-1-yl]-N-((S)-2-hydroxy-1-methyl-ethyl)-benzamide], the Ki in assay [1] is 8.91 nM; in assay [2], 2190 nM.
With `CCCc1ncnn1-c1cc(C(=O)NC(C)CN(C)C)cc(-c2ccc(C)cc2)c1` (stereo not shown) [Compound 63, 4′-Methyl-5-(5-propyl-[1,2,4]triazol-1-yl)-biphenyl-3-carboxylic acid (2-dimethylamino-1-methyl-ethyl)-amide], the Ki in assay [1] is 339 nM; in assay [2] it was 10000 nM.
In the case of `CCCc1ncnn1-c1cc(C(=O)N[C@@H](C)CO)cc(-c2ccc(Cl)cn2)c1` [Compound 111, 3-(5-Chloro-pyridin-2-yl)-N-((S)-2-hydroxy-1-methyl-ethyl)-5-(5-propyl-[1,2,4]triazol-1-yl)-benzamide], the figures for the Ki in assay [1] and in assay [2] were 18.2 nM and 4900 nM, respectively.
The corresponding values for `COC[C@@H](C)NC(=O)c1cc(-c2ccc(C)cc2)cc(-n2nncc2C)c1` [Compound 6, 4′-Methyl-5-(5-methyl-[1,2,3]triazol-1-yl)-biphenyl-3-carboxylic acid ((R)-2-methoxy-1-methyl-ethyl)-amide] are 269 nM and 2040 nM.
The like results for `COc1ncnn1-c1cc(C(=O)NC(C)c2cnccn2)cc(-c2ccc(Cl)cc2)c1` (stereo not shown) [Compound 50, 4′-Chloro-5-(5-methoxy-[1,2,4]triazol-1-yl)-biphenyl-3-carboxylic acid (1-pyrazin-2-yl-ethyl)-amide] were, in that order, 26.9 nM and 537 nM.
The corresponding values for `Cc1ccc(-c2cc(C(=O)NC(C)c3cnccn3)cc(-n3nncc3C(C)C)c2)cc1` (stereo not shown) [Compound 12, 5-(5-Isopropyl-[1,2,3]triazol-1-yl)-4′-methyl-biphenyl-3-carboxylic acid (1-pyrazin-2-yl-ethyl)-amide] are 7.94 nM and 31.6 nM.
